According to patent publication US9475839B2, “Peptide-based inhibitor of interleukin-10 or interferon-gamma signaling” (THE UNITED STATES OF AMERICA, AS REPRESENTED BY THE …, priority 2010, dated 2016):
Non-standard residues stand in square brackets, D forms with d. Residues, ends and D or L forms follow the SMILES beside them. *: point of attachment. Palmitoyl = CCCCCCCCCCCCCCCC(=O)*

These compounds were tested on MDA-MB-231 breast cancer cells (assay: Inhibition of IFN-gamma-dependent growth of MDA-MB-231 cells, MTT assay, 48 hours). Conditions: 48 h.
Format: cell-based
Procedure: Cells were exposed to compounds for 48 hours and cell number was determined with the help of MTT assay.
Cells were exposed to IL10-HF-1 for 48 hours and cell number was determined with the help of MTT assay.
Peptides designed to mimic conserved regions of the receptor sequences were tested for the ability to inhibit IL10 and IFN-gamma signaling. Inhibition of IL10 signaling was tested in a mouse mast cell line MC/9. […] Abrogation of IFN-gamma signaling or STAT1 activation causes cell death in this cell line.

Structure (SMILES)	GI50 [µM]
CCCCCCCCCCCCCCCC(=O)N[C@@H](Cc1ccccc1)C(=O)N[C@@H](Cc1ccc(O)cc1)C(=O)N[C@H](C(=O)N[C@@H](CCCCN)C(=O)N[C@@H](CCCCN)C(=O)N[C@H](C(=O)N[C@@H](CC(N)=O)C(=O)N1CCC[C@H]1C(=O)N[C@@H](CC(C)C)C(=O)N[C@@H](CCCCN)C(=O)N[C@@H](CCC(=O)O)C(=O)N[C@@H](CCCCN)C(=O)N[C@@H](CO)C(=O)N[C@H](C(=O)N[C@H](C(=O)N[C@@H](CC(C)C)C(=O)N1CCC[C@H]1C(=O)N[C@@H](CCCCN)C(=O)N[C@@H](CO)C(N)=O)[C@@H](C)CC)[C@@H](C)CC)[C@@H](C)CC)[C@@H](C)CC [IFNGR1-1, ε-Pal-FYIKKINPLKEKSIILPKS-NH2] (Palmitoyl-FYIKKINPLKEKSIILPKS-NH2)	> 25
CCCCCCCCCCCCCCCC(=O)N1CCC[C@H]1C(=O)N[C@@H](CC(C)C)C(=O)N[C@@H](CCCCN)C(=O)N[C@@H](CCC(=O)O)C(=O)N[C@@H](CCCCN)C(=O)N[C@@H](CO)C(=O)N[C@H](C(=O)N[C@H](C(=O)N[C@@H](CC(C)C)C(=O)N1CCC[C@H]1C(=O)N[C@@H](CCCCN)C(=O)N[C@@H](CO)C(=O)N[C@@H](CC(C)C)C(=O)N[C@@H](CC(C)C)C(=O)N[C@@H](CO)C(=O)N[C@H](C(=O)N[C@H](C(=O)N[C@@H](CCCNC(=N)N)C(N)=O)C(C)C)C(C)C)[C@@H](C)CC)[C@@H](C)CC [IFNGR1-3, ε-Pal-PLKEKSIILPKSLLSVVR-NH2] (Palmitoyl-PLKEKSIILPKSLLSVVR-NH2)	0.05
CCCCCCCCCCCCCCCC(=O)N[C@H](C(=O)N[C@@H](CC(C)C)C(=O)N1CCC[C@H]1C(=O)N[C@@H](CCCCN)C(=O)N[C@@H](CO)C(=O)N[C@@H](CC(C)C)C(=O)N[C@@H](CC(C)C)C(=O)N[C@@H](CO)C(=O)N[C@H](C(=O)N[C@H](C(=O)N[C@@H](CCCNC(=N)N)C(=O)N[C@@H](CO)C(=O)N[C@@H](C)C(=O)N[C@H](C(N)=O)[C@@H](C)O)C(C)C)C(C)C)[C@@H](C)CC [IFNGR1-4, ε-Pal-ILPKSLLSVVRSAT-NH2] (Palmitoyl-ILPKSLLSVVRSAT-NH2)	2.5
CCCCCCCCCCCCCCCC(=O)NCCCC[C@H](N)C(=O)NCC(=O)N[C@@H](CCCCN)C(=O)N[C@@H](CCC(=O)O)C(=O)N[C@@H](CO)C(=O)N[C@@H](CC(C)C)C(=O)N[C@H](C(=O)NCC(=O)N[C@@H](Cc1ccc(O)cc1)C(=O)N[C@@H](CCCNC(=N)N)C(=O)N1CCC[C@H]1C(=O)N[C@H](C(N)=O)[C@@H](C)O)[C@@H](C)CC [IFNGR1-6, ε-Pal-KGKESLIGYRPT-NH2] (H-K(Palmitoyl)GKESLIGYRPT-NH2; N-terminus assumed)	0.07
CCCCCCCCCCCCCCCC(=O)NCCCC[C@H](N)C(=O)NCC(=O)N[C@@H](Cc1ccc(O)cc1)C(=O)N[C@@H](CC(=O)O)C(=O)N[C@@H](CCCCN)C(=O)N1CCC[C@H]1C(=O)N[C@@H](Cc1c[nH]cn1)C(=O)N[C@H](C(=O)N[C@@H](CC(C)C)C(=O)N[C@H](C(=O)N[C@@H](CC(=O)O)C(=O)N[C@@H](CC(C)C)C(=O)N[C@@H](CC(C)C)C(=O)N[C@H](C(=O)N[C@@H](CC(=O)O)C(N)=O)C(C)C)C(C)C)C(C)C [IFNGR1-7, ε-Pal-KGYDKPHVLVDLLVD-NH2] (H-K(Palmitoyl)GYDKPHVLVDLLVD-NH2; N-terminus assumed)	1
CCCCCCCCCCCCCCCC(=O)NCCCC[C@H](N)C(=O)N[C@@H](CO)C(=O)N[C@H](C(=O)N[C@@H](C)C(=O)N[C@@H](CC(C)C)C(=O)N[C@@H](CC(N)=O)C(=O)N[C@@H](CO)C(=O)N[C@@H](Cc1ccc(O)cc1)C(=O)N[C@@H](Cc1c[nH]cn1)C(=O)N[C@@H](CO)C(=O)N[C@@H](CCCNC(=N)N)C(=O)N[C@@H](CC(N)=O)C(N)=O)[C@@H](C)CC [IFNGR1-8, ε-Pal-KSIALNSYHSRN-NH2] (H-K(Palmitoyl)SIALNSYHSRN-NH2; N-terminus assumed)	5 ± 1
CCCCCCCCCCCCCCCC(=O)NCCCC[C@H](N)C(=O)NCC(=O)NCC(=O)N[C@@H](CCCCN)C(=O)N[C@@H](CCC(=O)O)C(=O)N[C@@H](CO)C(=O)N[C@@H](CC(C)C)C(=O)N[C@H](C(=O)NCC(=O)N[C@@H](Cc1ccc(O)cc1)C(=O)N[C@@H](CCCNC(=N)N)C(N)=O)[C@@H](C)CC [IFNGR1-10, ε-Pal-KGGKESLIGYR-NH2] (H-K(Palmitoyl)GGKESLIGYR-NH2; N-terminus assumed)	2.5
CCCCCCCCCCCCCCCC(=O)NCCCC[C@H](N)C(=O)NCC(=O)N[C@@H](CCCCN)C(=O)N[C@@H](CCC(=O)O)C(=O)N[C@@H](CO)C(=O)N[C@@H](CC(C)C)C(=O)N[C@H](C(=O)NCC(=O)N[C@@H](Cc1ccc(O)cc1)C(=O)N[C@@H](CCCNC(=N)N)C(N)=O)[C@@H](C)CC [IFNGR1-11, ε-Pal-KGKESLIGYR-NH2] (H-K(Palmitoyl)GKESLIGYR-NH2; N-terminus assumed)	2
CCCCCCCCCCCCCCCC(=O)NCCCC[C@H](N)C(=O)NCC(=O)N[C@@H](Cc1ccc(O)cc1)C(=O)N[C@@H](CC(=O)O)C(=O)N[C@@H](CCCCN)C(=O)N1CCC[C@H]1C(=O)N[C@@H](Cc1c[nH]cn1)C(=O)N[C@H](C(=O)N[C@@H](CC(C)C)C(=O)N[C@H](C(N)=O)C(C)C)C(C)C [IFNGR1-12, ε-Pal-KGYDKPHVLV-NH2] (H-K(Palmitoyl)GYDKPHVLV-NH2; N-terminus assumed)	0.6
CCCCCCCCCCCCCCCC(=O)NCCCC[C@H](N)C(=O)N[C@@H](CC(C)C)C(=O)N[C@@H](CC(N)=O)C(=O)N[C@@H](CO)C(=O)N[C@@H](Cc1ccc(O)cc1)C(=O)N[C@@H](Cc1c[nH]cn1)C(=O)N[C@@H](CO)C(=O)N[C@@H](CCCNC(=N)N)C(=O)N[C@@H](CC(N)=O)C(=O)NCC(=O)N[C@@H](CO)C(N)=O [IFNGR1-13, ε-Pal-KLNSYHSRNGS-NH2] (H-K(Palmitoyl)LNSYHSRNGS-NH2; N-terminus assumed)	4.5
CCCCCCCCCCCCCCCC(=O)NCCCC[C@H](N)C(=O)NCC(=O)N[C@@H](Cc1ccc(O)cc1)C(=O)N[C@@H](CC(=O)O)C(=O)N[C@@H](CCCCN)C(=O)N1CCC[C@H]1C(=O)N[C@@H](Cc1c[nH]cn1)C(=O)N[C@H](C(N)=O)C(C)C [IFNGR1-15, ε-Pal-KGYDKPHV-NH2] (H-K(Palmitoyl)GYDKPHV-NH2; N-terminus assumed)	1.6
CCCCCCCCCCCCCCCC(=O)NCCCC[C@H](N)C(=O)N[C@@H](CCCCN)C(=O)N[C@@H](Cc1ccc(O)cc1)C(=O)N[C@@H](CCC(N)=O)C(=O)N[C@@H](CO)C(=O)N[C@@H](CCCNC(=N)N)C(=O)N[C@H](C(=O)N[C@@H](CCCCN)C(=O)N[C@@H](Cc1ccc(O)cc1)C(=O)N[C@@H](Cc1c[nH]c2ccccc12)C(=O)N[C@@H](Cc1ccccc1)C(=O)N[C@@H](CCC(N)=O)C(=O)N[C@@H](C)C(=O)N1CCC[C@H]1C(=O)N1CCC[C@H]1C(=O)N[C@@H](CC(N)=O)C(=O)N[C@H](C(=O)N1CCC[C@H]1C(=O)O)[C@@H](C)CC)C(C)C [IFNGR2-1, ε-Pal-KKYQSRVKYWFQAPPNIP] (H-K(Palmitoyl)KYQSRVKYWFQAPPNIP-OH; N-terminus and C-terminus assumed)	5

Same assay, conditions: Table 1; MTT assay after 48 hours exposure; concentration causing 50% inhibition in cell growth; read-out: GI50, MDA-MB-231

Structure (SMILES)	GI50 [µM]
CCCCCCCCCCCCCCCC(=O)NCCCC[C@@H](NC(=O)[C@@H](CCCCN)NC(=O)[C@@H](CC(C)C)NC(=O)[C@H]1CCCN1C(=O)[C@@H](CO)NC(=O)[C@H](NC(=O)[C@@H](CC(C)C)NC(=O)[C@@H](CC(C)C)NC(=O)[C@@H](Cc1ccccc1)NC(=O)[C@@H](CCCCN)NC(=O)[C@@H](CCCCN)NC(=O)[C@H]1CCCN1C(=O)[C@@H](CO)NC(C)=O)C(C)C)C(N)=O [IL10R1-9, Ac-SPKKFLLVSPLKK-ε-Pal] (Ac-[dS][dP][dK][dK][dF][dL][dL][dV][dS][dP][dL][dK][dK](Palmitoyl)-NH2; C-terminus assumed)	1
CCCCCCCCCCCCCCCC(=O)NCCCC[C@@H](NC(=O)[C@@H](CCCCN)NC(=O)[C@@H](CC(C)C)NC(=O)[C@H]1CCCN1C(=O)[C@@H](CO)NC(=O)[C@H](NC(=O)[C@@H](CC(C)C)NC(=O)[C@@H](CC(C)C)NC(=O)[C@@H](Cc1ccccc1)NC(=O)[C@@H](CCCCN)NC(=O)[C@@H](CCCCN)NC(C)=O)C(C)C)C(N)=O [IL10R1-10, Ac-KKFLLVSPLKK-ε-Pal] (Ac-[dK][dK][dF][dL][dL][dV][dS][dP][dL][dK][dK](Palmitoyl)-NH2; C-terminus assumed)	1
CCCCCCCCCCCCCCCC(=O)NCCCC[C@@H](NC(=O)[C@@H](CCCCN)NC(=O)[C@@H](CC(C)C)NC(=O)[C@H]1CCCN1C(=O)[C@@H](CO)NC(=O)[C@H](NC(=O)[C@@H](CC(C)C)NC(=O)[C@@H](CC(C)C)NC(=O)[C@@H](Cc1ccccc1)NC(=O)[C@@H](CCCCN)NC(=O)[C@@H](CCCCN)NC(=O)[C@H]1CCCN1C(C)=O)C(C)C)C(N)=O [IL10R1-11, Ac-PKKFLLVSPLKK-ε-Pal] (Ac-[dP][dK][dK][dF][dL][dL][dV][dS][dP][dL][dK][dK](Palmitoyl)-NH2; C-terminus assumed)	1

Same assay, conditions: Table 3; MDA-MB-231 breast cancer cell line growth; regions B, C, D of IFNGR1; read-out: GI50

Structure (SMILES)	GI50 [µM]
CCCCCCCCCCCCCCCC(=O)NCCCC[C@H](N)C(=O)N[C@@H](Cc1ccccc1)C(=O)NCC(=O)N[C@@H](Cc1ccc(O)cc1)C(=O)N[C@@H](CC(=O)O)C(=O)N[C@@H](CCCCN)C(=O)N1CCC[C@H]1C(=O)N[C@@H](Cc1c[nH]cn1)C(=O)N[C@H](C(N)=O)C(C)C [IFNGR1-16, ε-Pal-KFGYDKPHV-NH2] (H-K(Palmitoyl)FGYDKPHV-NH2; N-terminus assumed)	2.1
